Experimental data published in PubChem BioAssay AID248 (DTP/NCI, 2004).
“And” between values parts separate entries of the source, which are not always exact repeats. Equal values may be shown once. Toxic doses and inconclusive results are not listed. No stated cut-off is given here; in the data, active means T/C of 150% or more; inactive means T/C below 125%.

Test system: L1210 leukemia ip in BDF1 mice, survival T/C
Assay: NCI In Vivo Anticancer Drug Screen. Data for tumor model L1210 Leukemia (intraperitoneal) in B6D2F1 (BDF1) mice
Conditions: endpoint: mean survival time, higher = longer survival
Method in brief: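 Antitumor effect is assessed in tumor-bearing animals. Survival in the compound arm is compared with a vehicle-dosed control arm and expressed as their quotient.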

[1] = dose: 100.0 mg/kg/injection, schedule: Q01DX001 (ip), vehicle: saline with Tween-80
[2] = dose: 100.0 mg/kg/injection, schedule: Q01DX009 (ip), vehicle: saline with Tween-80
[3] = dose: 100.0 mg/kg/injection, schedule: Q04DX002 (ip), vehicle: saline with Tween-80
[4] = dose: 100.0 mg/kg/injection, schedule: Q04DX003 (ip), vehicle: saline with Tween-80
[5] = dose: 200.0 mg/kg/injection, schedule: Q01DX001 (ip), vehicle: saline with Tween-80
[6] = dose: 200.0 mg/kg/injection, schedule: Q01DX009 (ip), vehicle: saline with Tween-80
[7] = dose: 200.0 mg/kg/injection, schedule: Q04DX002 (ip), vehicle: saline with Tween-80
[8] = dose: 200.0 mg/kg/injection, schedule: Q04DX003 (ip), vehicle: saline with Tween-80
[9] = dose: 400.0 mg/kg/injection, schedule: Q01DX001 (ip), vehicle: saline with Tween-80
[10] = dose: 400.0 mg/kg/injection, schedule: Q01DX009 (ip), vehicle: saline with Tween-80
[11] = dose: 400.0 mg/kg/injection, schedule: Q04DX002 (ip), vehicle: saline with Tween-80
[12] = dose: 400.0 mg/kg/injection, schedule: Q04DX003 (ip), vehicle: saline with Tween-80
[13] = dose: 100.0 mg/kg/injection, schedule: Q01DX001 (ip), vehicle: saline
[14] = dose: 200.0 mg/kg/injection, schedule: Q01DX001 (ip), vehicle: saline
[15] = dose: 100.0 mg/kg/injection, schedule: Q01DX009 (ip), vehicle: Klucel (hydroxypropylcellulose) (HPC)
[16] = dose: 200.0 mg/kg/injection, schedule: Q01DX009 (ip), vehicle: Klucel (hydroxypropylcellulose) (HPC)
[17] = dose: 400.0 mg/kg/injection, schedule: Q01DX009 (ip), vehicle: Klucel (hydroxypropylcellulose) (HPC)
[18] = dose: 50.0 mg/kg/injection, schedule: Q01DX001 (ip), vehicle: saline
[19] = dose: 400.0 mg/kg/injection, schedule: Q01DX001 (ip), vehicle: saline
[20] = dose: 50.0 mg/kg/injection, schedule: Q01DX009 (ip), vehicle: saline with Tween-80
[21] = dose: 25.0 mg/kg/injection, schedule: Q01DX009 (ip), vehicle: saline with Tween-80
[22] = dose: 100.0 mg/kg/injection, schedule: Q01DX009 (ip), vehicle: saline

Measured: T/C

OC1(CCC2OCCO2)c2ccccc2-c2ccccc21
inactive: [1] 95 % of control | [2] 93 % of control | [3] 95 % of control and 100 % of control | [4] 96 % of control | [5] 90 % of control | [6] 96 % of control and 100 % of control | [7] 93 % of control and 102 % of control | [8] 96 % of control | [9] 93 % of control | [10] 96 % of control and 120 % of control | [11] 95 % of control | [12] 95 % of control

FC(F)(F)Cc1cccc(C(F)(F)F)c1
inactive: [1] 113 % of control | [5] 103 % of control | [9] 105 % of control

CC(=O)Nc1ncnc(NC(C)=O)c1N=O
inactive: [13] 93 % of control | [14] 102 % of control

OC12CCCCC1C[n+]1ccccc1C2 (stereo unspecified)
inactive: [13] 101 % of control

C1=NOC2c3ccc4ccccc4c3CCC12 (stereo unspecified)
inactive: [15] 95 % of control | [16] 93 % of control | [17] 93 % of control

Cc1cc(C)c2ccc([S+](C)C)c-2c(C)c1
inactive: dose: 5.0 mg/kg/injection, schedule: Q01DX001 (ip), vehicle: carboxymethylcellulose (CMC) 105 % of control | dose: 10.0 mg/kg/injection, schedule: Q01DX001 (ip), vehicle: carboxymethylcellulose (CMC) 100 % of control | dose: 20.0 mg/kg/injection, schedule: Q01DX001 (ip), vehicle: carboxymethylcellulose (CMC) 105 % of control | dose: 40.0 mg/kg/injection, schedule: Q01DX001 (ip), vehicle: carboxymethylcellulose (CMC) 108 % of control | dose: 80.0 mg/kg/injection, schedule: Q01DX001 (ip), vehicle: carboxymethylcellulose (CMC) 97 % of control

CC(C)(C)C(=O)Nc1ccc(S(=O)(=O)c2ccc(NC(=O)C(C)(C)C)cc2)cc1
inactive: [18] 95 % of control | [13] 93 % of control | [14] 93 % of control | [19] 98 % of control

Cc1cccc(OC(=O)Nc2ccc(C(=O)O)c(O)c2)c1
inactive: dose: 50.0 mg/kg/injection, schedule: Q04DX003 (ip), vehicle: gum acacia 96 % of control and 98 % of control | dose: 100.0 mg/kg/injection, schedule: Q01DX001 (ip), vehicle: gum acacia 104 % of control and 105 % of control | dose: 100.0 mg/kg/injection, schedule: Q01DX009 (ip), vehicle: gum acacia 97 % of control and 88 % of control | dose: 100.0 mg/kg/injection, schedule: Q04DX002 (ip), vehicle: gum acacia 94 % of control and 88 % of control | dose: 100.0 mg/kg/injection, schedule: Q04DX003 (ip), vehicle: gum acacia 101 % of control and 88 % of control | dose: 200.0 mg/kg/injection, schedule: Q01DX001 (ip), vehicle: gum acacia 100 % of control and 107 % of control | dose: 200.0 mg/kg/injection, schedule: Q01DX009 (ip), vehicle: gum acacia 98 % of control and 117 % of control | dose: 200.0 mg/kg/injection, schedule: Q04DX002 (ip), vehicle: gum acacia 95 % of control and 110 % of control | dose: 200.0 mg/kg/injection, schedule: Q04DX003 (ip), vehicle: gum acacia 98 % of control and 101 % of control

CNC(=O)c1cc(NC(=O)Nc2cccc(C3=NCCN3)c2)cc(NC(=O)Nc2cccc(C3=NCCN3)c2)c1
inactive: dose: 15.0 mg/kg/injection, schedule: Q01DX Z (ip), vehicle: saline 114 % of control | dose: 30.0 mg/kg/injection, schedule: Q01DX Z (oral), vehicle: saline 103 % of control | dose: 60.0 mg/kg/injection, schedule: Q01DX Z (ip), vehicle: saline 120 % of control | dose: 60.0 mg/kg/injection, schedule: Q01DX Z (oral), vehicle: saline 119 % of control | dose: 120.0 mg/kg/injection, schedule: Q01DX Z (oral), vehicle: saline 101 % of control | dose: 240.0 mg/kg/injection, schedule: Q01DX Z (oral), vehicle: saline 95 % of control

O=C(Cc1ccccc1)Nc1cccc2ccccc12
inactive: [15] 101 % of control | [16] 95 % of control | [17] 91 % of control

BrCOCCCCOCBr
inactive: dose: 44.0 mg/kg/injection, schedule: Q01DX009 (ip), vehicle: saline with Tween-80 109 % of control | dose: 50.0 mg/kg/injection, schedule: Q01DX001 (ip), vehicle: saline with Tween-80 102 % of control | [20] 108 % of control | dose: 50.0 mg/kg/injection, schedule: Q04DX002 (ip), vehicle: saline with Tween-80 105 % of control | dose: 50.0 mg/kg/injection, schedule: Q04DX003 (ip), vehicle: saline with Tween-80 110 % of control | dose: 67.0 mg/kg/injection, schedule: Q01DX009 (ip), vehicle: saline with Tween-80 112 % of control | [1] 102 % of control | [2] 109 % of control | [3] 107 % of control | [4] 107 % of control | dose: 150.0 mg/kg/injection, schedule: Q01DX009 (ip), vehicle: saline with Tween-80 107 % of control | [5] 104 % of control | [6] 104 % of control | [7] 105 % of control | [8] 109 % of control | [9] 107 % of control | [11] 91 % of control | [12] 103 % of control

O=C(C(Br)C(Br)c1ccccc1)C(Br)C(Br)c1ccccc1 (stereo unspecified)
inactive: dose: 100.0 mg/kg/injection, schedule: Q04DX003 (ip), vehicle: saline sonified 101 % of control | dose: 200.0 mg/kg/injection, schedule: Q04DX003 (ip), vehicle: saline sonified 105 % of control | dose: 400.0 mg/kg/injection, schedule: Q04DX003 (ip), vehicle: saline sonified 97 % of control

N#CC1(Nc2cccc(C(F)(F)F)c2)CCCCC1
inactive: [15] 94 % of control | [16] 105 % of control | [17] 100 % of control

Cc1cccc(CCSCCc2cccc(C)[n+]2[O-])[n+]1[O-]
inactive: [13] 96 % of control | [14] 92 % of control

Nc1[nH][nH]c(=O)c1N
inactive: dose: 50.0 mg/kg/injection, schedule: Q01DX009 (ip), vehicle: Klucel (hydroxypropylcellulose) (HPC) 117 % of control | [15] 100 % of control | [16] 100 % of control

CC(C(=O)C(Cc1ccccc1)c1ccccc1)C1CCC2C3C(OC=O)CC4CC(OC=O)CCC4(C)C3CC(OC=O)C12C (stereo unspecified)
inactive: dose: 12.5 mg/kg/injection, schedule: Q01DX009 (ip), vehicle: saline with Tween-80 90 % of control | [21] 87 % of control | [20] 90 % of control | [2] 91 % of control | [6] 88 % of control

CC(=O)N(C)c1ccc(NC(=O)Nc2ccccc2F)cc1
inactive: [15] 98 % of control | [16] 95 % of control | [17] 95 % of control

S=c1[nH]c2nccnc2[nH]1
inactive: [21] 96 % of control | [20] 96 % of control | [2] 93 % of control | [6] 97 % of control | [10] 104 % of control

CC(OC1OC(C(=O)O)C(O)C(O)C1O)c1ccccc1 (stereo unspecified)
inactive: [22] 98 % of control | dose: 200.0 mg/kg/injection, schedule: Q01DX009 (ip), vehicle: saline 97 % of control | dose: 400.0 mg/kg/injection, schedule: Q01DX009 (ip), vehicle: saline 105 % of control

C/C(CCC(=O)OC(C)(C)C)=N\N(C)C
inactive: dose: 100.0 mg/kg/injection, schedule: Q04DX003 (ip), vehicle: saline 93 % of control | dose: 200.0 mg/kg/injection, schedule: Q04DX003 (ip), vehicle: saline 91 % of control | dose: 400.0 mg/kg/injection, schedule: Q04DX003 (ip), vehicle: saline 111 % of control

COC1C(COS(=O)(=O)c2ccc(C)cc2)OC2OC(C)(C)OC21 (stereo unspecified)
inactive: dose: 100.0 mg/kg/injection, schedule: Q04DX003 (ip), vehicle: other 92 % of control | dose: 200.0 mg/kg/injection, schedule: Q04DX003 (ip), vehicle: other 97 % of control | dose: 400.0 mg/kg/injection, schedule: Q04DX003 (ip), vehicle: other 101 % of control

N#CCCOCC(COCCC#N)OCCC#N
inactive: [18] 106 % of control | dose: 50.0 mg/kg/injection, schedule: Q01DX009 (ip), vehicle: saline 124 % of control | [13] 108 % of control | [22] 108 % of control | [14] 101 % of control | [19] 92 % of control

Nc1nc(N)c(N=O)c(=O)[nH]1
inactive: [13] 105 % of control | [15] 99 % of control | [14] 95 % of control | [16] 100 % of control | [19] 94 % of control | [17] 97 % of control
